Data from the NIST ThermoML archive (doi:10.1021/je049762q).
± gives the expanded uncertainty stated by the source.

Test: molar heat capacity at constant pressure
Conditions: 101.33 kPa

Clc1ccc(Cl)cc1 [1,4-dichlorobenzene]
Conditions | molar heat capacity at constant pressure [J/K/mol]
194.87 K, Crystal 3 | 102.23 ± 0.6
195.23 K, Crystal 3 | 102.39 ± 0.6
197.82 K, Crystal 3 | 103.42 ± 0.61
198.11 K, Crystal 3 | 103.53 ± 0.61
200 K, Crystal 3 | 104.28 ± 0.61
200.75 K, Crystal 3 | 104.57 ± 0.61
200.98 K, Crystal 3 | 104.65 ± 0.61
203.66 K, Crystal 3 | 105.76 ± 0.61
206.55 K, Crystal 3 | 106.91 ± 0.61
209.43 K, Crystal 3 | 108.06 ± 0.62
210 K, Crystal 3 | 108.29 ± 0.61
212.28 K, Crystal 3 | 109.21 ± 0.62
215.03 K, Crystal 3 | 110.08 ± 0.62
215.12 K, Crystal 3 | 110.42 ± 0.62
217.8 K, Crystal 3 | 111.29 ± 0.62
217.94 K, Crystal 3 | 111.43 ± 0.62
220 K, Crystal 3 | 112.15 ± 0.62
220.54 K, Crystal 3 | 112.37 ± 0.62
220.75 K, Crystal 3 | 112.46 ± 0.62
223.28 K, Crystal 3 | 113.45 ± 0.63
225.99 K, Crystal 3 | 114.54 ± 0.63
226.32 K, Crystal 3 | 114.68 ± 0.63
228.7 K, Crystal 3 | 115.59 ± 0.63
229.08 K, Crystal 3 | 115.81 ± 0.63
230 K, Crystal 3 | 116.16 ± 0.63
231.39 K, Crystal 3 | 116.65 ± 0.63
231.82 K, Crystal 3 | 116.88 ± 0.63
234.07 K, Crystal 3 | 117.7 ± 0.64
234.55 K, Crystal 3 | 117.96 ± 0.64
236.73 K, Crystal 3 | 118.76 ± 0.64
237.27 K, Crystal 3 | 119.01 ± 0.64
239.38 K, Crystal 3 | 119.79 ± 0.64
239.97 K, Crystal 3 | 119.98 ± 0.64
240 K, Crystal 3 | 119.99 ± 0.64
242.02 K, Crystal 3 | 120.79 ± 0.64
242.66 K, Crystal 3 | 121.05 ± 0.64
244.65 K, Crystal 3 | 121.76 ± 0.64
245.34 K, Crystal 3 | 122.11 ± 0.64
247.26 K, Crystal 3 | 122.73 ± 0.65
248 K, Crystal 3 | 123.17 ± 0.65
249.87 K, Crystal 3 | 123.71 ± 0.65
250 K, Crystal 3 | 123.77 ± 0.65
250.66 K, Crystal 3 | 124.06 ± 0.65
252.46 K, Crystal 3 | 124.73 ± 0.65
253.3 K, Crystal 3 | 125.12 ± 0.65
255.04 K, Crystal 3 | 125.74 ± 0.65
257.61 K, Crystal 3 | 126.76 ± 0.65
260 K, Crystal 3 | 127.72 ± 0.66
260.16 K, Crystal 3 | 127.77 ± 0.66
262.71 K, Crystal 3 | 128.79 ± 0.66
265.24 K, Crystal 3 | 129.78 ± 0.66
267.76 K, Crystal 3 | 130.84 ± 0.66
270 K, Crystal 3 | 131.65 ± 0.67
270.28 K, Crystal 3 | 131.78 ± 0.66
272.78 K, Crystal 3 | 132.68 ± 0.67
275 K, Crystal 2 | 134.45 ± 0.67
275 K, Crystal 3 | 133.61 ± 0.67
280 K, Crystal 2 | 135.94 ± 0.67
281.42 K, Crystal 2 | 136.31 ± 0.67
283.88 K, Crystal 2 | 137.36 ± 0.67
286.32 K, Crystal 2 | 138.34 ± 0.68
290 K, Crystal 2 | 139.78 ± 0.68
292.1 K, Crystal 2 | 140.78 ± 0.68
293.87 K, Crystal 2 | 141.42 ± 0.68
296.42 K, Crystal 2 | 142.86 ± 0.69
298.15 K, Crystal 2 | 143.78 ± 0.69
298.96 K, Crystal 2 | 144.24 ± 0.69
300 K, Crystal 2 | 144.8 ± 0.69
301.51 K, Crystal 2 | 145.69 ± 0.69
306 K, Crystal 1 | 147.86 ± 0.7
306 K, Crystal 2 | 147.75 ± 0.7
308.59 K, Crystal 1 | 148.61 ± 0.7
310 K, Crystal 1 | 149.45 ± 0.7
311.33 K, Crystal 1 | 150.45 ± 0.7
314.11 K, Crystal 1 | 151.51 ± 0.7
316.65 K, Crystal 1 | 152.8 ± 0.71
319.2 K, Crystal 1 | 154.18 ± 0.71
320 K, Crystal 1 | 154.72 ± 0.71
321.74 K, Crystal 1 | 155.8 ± 0.71
326.24 K, Crystal 1 | 158 ± 0.71
326.24 K, Liquid | 175.98 ± 0.75
330 K, Liquid | 176.87 ± 0.76
331.52 K, Liquid | 177.33 ± 0.75
332.72 K, Liquid | 177.51 ± 0.76
333.8 K, Liquid | 177.86 ± 0.76
335.4 K, Liquid | 178.04 ± 0.76
336.04 K, Liquid | 178.35 ± 0.76
337.95 K, Liquid | 178.72 ± 0.76
338.28 K, Liquid | 178.83 ± 0.76
340 K, Liquid | 179.23 ± 0.76
340.5 K, Liquid | 179.25 ± 0.76
340.53 K, Liquid | 179.38 ± 0.76
342.77 K, Liquid | 179.91 ± 0.76
343.05 K, Liquid | 179.96 ± 0.76
345.6 K, Liquid | 180.47 ± 0.76
348.14 K, Liquid | 181.07 ± 0.76
350 K, Liquid | 181.59 ± 0.77
350.69 K, Liquid | 181.7 ± 0.76
353.24 K, Liquid | 182.31 ± 0.76
355.79 K, Liquid | 183.1 ± 0.77
358.34 K, Liquid | 183.5 ± 0.77
360 K, Liquid | 183.95 ± 0.77
360.89 K, Liquid | 184.17 ± 0.77
363.44 K, Liquid | 184.8 ± 0.77
368.54 K, Liquid | 185.95 ± 0.77
370 K, Liquid | 186.3 ± 0.77
371.09 K, Liquid | 186.69 ± 0.77
373.64 K, Liquid | 187.14 ± 0.77
376.2 K, Liquid | 187.74 ± 0.78
380 K, Liquid | 188.66 ± 0.77
